# Source: patent publication US10766914B2, “DNA alkylating agents” (OBI PHARMA, INC., priority 2015, dated 2020)
# Like-named read-outs stand apart in the source and are kept apart here.
# Tests used:
# [1] = Pharmacokinetics of TH2953 in NU/NU mice with A549 and H460 xenografts; assay type: in vivo, Mouse/Nu-Foxn 1nu NU/NU mice; settings: Nu-Foxn1nu NU/NU, mouse; for Kp: intraperitoneal, A549 tumor xenograft, 10 and 40 mg/kg ip; for AUC / Cmax / Tmax / half-life: plasma, ip
# Procedure: The pharmacokinetics of TH2660, the active metabolite, following a single iintraperitoneal dose of TH2953 are shown below.
# A549 and H460, following a single intraperitoneal dose of 10 and 40 mg/kg for A549 and 10 mg/kg for H460. TH2953 concentrations in the brain, liver and tumor were 55.0-73.8%, 297-541% and 2.08-8.34% of the concentrations in plasma in the A549 tumor xenograft. […] In the A549 xenograft, the preferential activation of TH2953 was more pronounced as the concentrations of TH2660 in the tumor were ˜5-7-fold greater than for TH2953, while they were only ˜13-15% in the liver.
# H460 NSCLC xenograft = test: Example 4-F antitumor efficacy, ectopic H460 NSCLC xenograft model; assay type: in vivo, female nude mice (nu/nu); settings: ip
# Excerpt: (§1) Specific pathogen-free homozygous female nude mice (nu/nu, Charles River Laboratories) were used. Mice were given food and water ad libitum and housed in microisolator cages. Four to six week old animals were identified by microchips (Locus Technology, Manchester, Md., USA) at the time of the experiments. All animal studies were approved by the Institutional Animal Care and Use Committee at Threshold Pharmaceuticals, Inc.
# (§2) All cell lines were from the American Type Culture Collection (ATCC, Rockville, Md., USA).
# (§3) Cells were mixed with Matrigel (50% with exception for 30% in the H460) and 0.2 ml per mouse were subcutaneously implanted to the flank area of the animals. When tumor size reached 100-150 250 mm3, mice were randomized into experimental or vehicle groups with 10 mice/group and treatment was started (Day 1). The tested compounds were formulated in 5% DMSO in D5W. The regimens employed in the examples include IP, QD×5/wk (5 days on, 2 days off) as one cycle, for a total of 2 cycles; IP, once; IP, weekly for total 3 weeks; and IV, weekly for 3 weeks. Tumor growth and body weight were measured twice a week. Tumor volume was calculated as (length×width2)/2. Drug efficacy was assessed as Tumor Growth Inhibition (TGI) and Tumor Growth Delay (TGD). TGI was defined as (1−ΔT/ΔC)×100, where ΔT/ΔC presented the ratio of the change in mean (or median, if variation within the group was relatively large) tumor volume of the treated group and of the control group. TGD was calculated as the extra days for the treated tumor to reach 500 mm3 or 1000 mm3 as compared to the control group. Animals were culled when individual tumor size reached over 2000 mm3 or mean tumor volume exceeded 1000 mm3 in the group. Data are expressed as the mean±SEM. One-way analysis of variance with Dunnett post comparison test (GraphPad Prism 4) or two-tailed student's t-test were used for analysis. A P level <0.05 was considered statistically significant.
# (§4) The compounds TH-2953 and TH-3040 were tested in a H460 model. The compounds were dosed as follows. A dose-dependent TH-2953 was given IP once, from 6.25 to 100 mg/kg, comparing with daily IP: 5 doses then 2 days off then 5 more doses starting at 100 mm^3 tumors on day 1 (10 animals per group average tumor volume). TH-3040 was administered IP once. The antitumor effects and the safety of administration are graphically illustrated below.
# H460 cells = test: Proliferation assay in H460 cells (2 hr exposure, AlamarBlue); assay type: cell-based, human; settings: Homo sapiens, NCI-H460, 2 hrs exposure, wash, 70 hrs growth, read-out: IC 50 in proliferation assay in H460 cells
# How it was run: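 H460 cells seeded at 4×10^3/well, grown 24 h, then exposed to compound for 2 h at 37 °C. Drug was washed off and cells were regrown 70 h in fresh medium. Viable cells were read by AlamarBlue, and IC50 was taken as the concentration giving 50% growth inhibition.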
# [2] = Example 4-F body weight change, H460 xenograft study; assay type: in vivo, female nude mice (nu/nu); settings: ip
# Procedure: as §3, §4
# A549 NSCLC xenograft = test: Example 4-D antitumor efficacy, ectopic A549 NSCLC xenograft model; assay type: in vivo, female nude mice (nu/nu); settings: 40 mg/kg IP QD × 5/wk × 2 wks
# Excerpt: as §1, §2, §3
# (§5) The compounds were tested in another A549 model. The compounds were dosed as follows. Daily IP dosing: 5 doses then 2 days off then 5 more doses starting at 100 mm^3 tumors on day 1 (10 animals per group average tumor volume). The antitumor effects and the safety of administration are graphically illustrated below.
# [3] = Example 4-D body weight change and lethal toxicity, A549 xenograft study; assay type: in vivo, female nude mice (nu/nu); settings: 40 mg/kg IP QD × 5/wk × 2 wks
# Procedure: as §3, §5
# [4] = system: A 549 non-small cell lung xenograft; test: Example 4-B antitumor efficacy, ectopic A549 NSCLC xenograft model; assay type: in vivo, female nude mice (nu/nu)
# Excerpt: as §1, §2, §3
# The dosing was as follows. Daily IP dosing: 5 doses then 2 days off then 5 more doses starting at 110 mm^3 tumors on day 1 (10 animals per group average tumor volume).
# Doses were selected by first doing a toxicity test in CD1 mice as described above. The compounds were tested against Thio-tepa.
# [5] = Example 4-B body weight change, A549 xenograft study; assay type: in vivo, female nude mice (nu/nu)
# Procedure: as §3
# Antitumor effects of compounds provided herein were determined on A 549 non-small cell lung xenograft model in comparison with a chemotherapy agent, thiotepa. The dosing was as follows. Daily IP dosing: 5 doses then 2 days off then 5 more doses starting at 110 mm^3 tumors on day 1 (10 animals per group average tumor volume). The antitumor effects and the safety of administration are graphically illustrated below.
# [6] = Example 4-C body weight change, A375 xenograft study; assay type: in vivo, female nude mice (nu/nu); settings: qd × 5 × 2, ip
# Procedure: as §3
# his study employed an A375 melanoma human tumor xenograft model and various compounds provided herein were compared to thiotepa and the approved anti melanoma drug, nab-Paclitaxel. The antitumor effects and the safety of administration are graphically illustrated below.
# [7] = system: A375 melanoma human tumor xenograft; test: Example 4-C antitumor efficacy, ectopic A375 melanoma xenograft model; assay type: in vivo, female nude mice (nu/nu); settings: qd × 5 × 2, ip; for inhibition in vivo at 10 mg/kg: A-375, 10 mpk
# Excerpt: as §1, §2, §3
# his study employed an A375 melanoma human tumor xenograft model and various compounds provided herein were compared to thiotepa and the approved anti melanoma drug, nab-Paclitaxel.
# [8] = Pharmacokinetics in CD-1 mice following a single intraperitoneal dose (parent and TH2660); settings: mouse, in vivo, ip, parent compound
# Procedure: The pharmacokinetics of TH2873, TH2883, TH2888, TH2890, TH2901 and TH2926 were determined in CD-1 mice following a single intraperitoneal dose.
# The pharmacokinetics of TH2660, the active metabolite, following a single intraperitoneal dose of TH2873, TH2883, TH2888, TH2890, TH2901 and TH2926 are shown below.
# [9] = 10 mg/kg, TH2953 10 mg/kg single ip, A549 xenograft
# [10] = 10 mg/kg, TH2953 10 mg/kg single ip, H460 xenograft
# [11] = 40 mg/kg, TH2953 40 mg/kg single ip, A549 xenograft
# [12] = 1.25 mg/kg ip QD × 5/wk × 2 wks
compound,measurement,setting,value
CC(OP(=O)(N1CC1)N1CC1)c1ccc([N+](=O)[O-])c(Oc2ccc(-c3ccccc3)cc2)c1 (stereo not shown) [Compound 2953],Kp,"[1]; brain (relative to plasma), read-out: concentration in the brain as % of the concentrations in plasma",0.55 to 0.738
same,Kp,"[1]; liver (relative to plasma), read-out: concentration in the liver as % of the concentrations in plasma",2.97 to 5.41
same,AUC,[1]; [9],4430 ng·h/mL
same,Cmax,[1]; [9],149 ng/mL
same,Tmax,[1]; [9],30 min
same,half-life,[1]; [9],100 min
same,AUC,[1]; [10],7400 ng·h/mL
same,Cmax,[1]; [10],2330 ng/mL
same,Tmax,[1]; [10],15 min
same,half-life,[1]; [10],142 min
same,AUC,[1]; [11],39000 ng·h/mL
same,Cmax,[1]; [11],14800 ng/mL
same,Tmax,[1]; [11],30 min
same,half-life,[1]; [11],91.3 min
same,Kp,"[1]; tumor (relative to plasma), read-out: concentration in the tumor as % of the concentrations in plasma",0.0208 to 0.0834
same,TGD 500,"H460 NSCLC xenograft; 6.25 mpk, once",16 days
same,TGD 1000,"H460 NSCLC xenograft; 6.25 mpk, once",17 days
same,TGI,"H460 NSCLC xenograft; 6.25 mpk, once",72.2%
same,TGD 500,"H460 NSCLC xenograft; 12.5 mpk, once",18 days
same,TGD 1000,"H460 NSCLC xenograft; 12.5 mpk, once",21 days
same,TGI,"H460 NSCLC xenograft; 12.5 mpk, once",78.2%
same,TGD 500,"H460 NSCLC xenograft; 25 mpk, once",18 days
same,TGD 1000,"H460 NSCLC xenograft; 25 mpk, once",20 days
same,TGI,"H460 NSCLC xenograft; 25 mpk, once",86.1%
same,TGD 500,"H460 NSCLC xenograft; 40 mpk, QD × 5/wk × 2ks",54 days
same,TGD 1000,"H460 NSCLC xenograft; 40 mpk, QD × 5/wk × 2ks",65 days
same,TGI,"H460 NSCLC xenograft; 40 mpk, QD × 5/wk × 2ks",105.8%
same,TGD 500,"H460 NSCLC xenograft; 50 mpk, once",19 days
same,TGD 1000,"H460 NSCLC xenograft; 50 mpk, once",19 days
same,TGI,"H460 NSCLC xenograft; 50 mpk, once",90.4%
same,TGD 500,"H460 NSCLC xenograft; 100 mpk, once",24 days
same,TGD 1000,"H460 NSCLC xenograft; 100 mpk, once",27 days
same,TGI,"H460 NSCLC xenograft; 100 mpk, once",97.7%
same,IC50,H460 cells,5 nM
same,Max. BW loss %,"[2]; 6.25 mpk, once",0.0%
same,Max. BW loss %,"[2]; 12.5 mpk, once",0.0%
same,Max. BW loss %,"[2]; 25 mpk, once",0.2%
same,Max. BW loss %,"[2]; 40 mpk, QD × 5/wk × 2ks",0.0%
same,Max. BW loss %,"[2]; 50 mpk, once",0.0%
same,Max. BW loss %,"[2]; 100 mpk, once",0.0%
same,TGD 500,A549 NSCLC xenograft,64 days
same,TGI,A549 NSCLC xenograft,93.8%
same,Max. BW loss %,[3],1.6%
same,Lethal Tox,[3]; 10 animals per group,0
CC(OP(=O)(N1CC1)N1CC1)c1ccc([N+](=O)[O-])c(Oc2cccnc2)c1 (stereo not shown) [Compound 2852],TGD 500,[4]; 10 mg/kg ip QD × 5/wk × 2 wks,>72 days
same,TGI,[4]; 10 mg/kg ip QD × 5/wk × 2 wks,95.1%
same,IC50,H460 cells,20 nM
same,Max. BW loss %,[5]; 10 mg/kg ip QD × 5/wk × 2 wks,0.0%
same,Max. BW loss %,[6]; 10 mpk,2.6%
same,TGD 500,[7]; 10 mpk,3 days
same,TGD 1000,[7]; 10 mpk,1 days
same,inhibition in vivo at 10 mg/kg,"[7]; Mus musculus, read-out: TGI",12.4%
O=[N+]([O-])c1ccc(COP(=O)(N2CC2)N2CC2)cc1Oc1ccccc1 [Compound 2850],TGD 500,[4]; 10 mg/kg ip QD × 5/wk × 2 wks,70 days
same,TGI,[4]; 10 mg/kg ip QD × 5/wk × 2 wks,94.3%
same,TGD 500,[4]; 20 mg/kg ip QD × 5/wk × 2 wks,>72 days
same,TGI,[4]; 20 mg/kg ip QD × 5/wk × 2 wks,88.1%
same,IC50,H460 cells,20 nM
same,Max. BW loss %,[5]; 10 mg/kg ip QD × 5/wk × 2 wks,0.9%
same,Max. BW loss %,[5]; 20 mg/kg ip QD × 5/wk × 2 wks,7.4%
same,Max. BW loss %,[6]; 10 mpk,2.8%
same,TGD 500,[7]; 10 mpk,-2 days
same,TGD 1000,[7]; 10 mpk,0 days
same,inhibition in vivo at 10 mg/kg,"[7]; Mus musculus, read-out: TGI",2.7%
"S=P(N1CC1)(N1CC1)N1CC1 [Thio-TEPA, thiotepa, reference compound]",TGD 500,[4]; [12],17 days
same,TGI,[4]; [12],56.1%
same,TGD 500,[4]; 2.5 mg/kg ip QD × 5/wk × 2 wks,26 days
same,TGI,[4]; 2.5 mg/kg ip QD × 5/wk × 2 wks,68.3%
same,Max. BW loss %,[5]; [12],0.0%
same,Max. BW loss %,[5]; 2.5 mg/kg ip QD × 5/wk × 2 wks,0.4%
same,Max. BW loss %,[6]; 2.5 mpk,0%
same,TGD 500,[7]; 2.5 mpk,3 days
same,TGD 1000,[7]; 2.5 mpk,2 days
same,inhibition in vivo at 2.5 mg/kg,"[7]; Mus musculus, A-375, 2.5 mpk, read-out: TGI",16.6%
Cc1ccc(Oc2cc(COP(=O)(N3CC3)N3CC3)ccc2[N+](=O)[O-])cn1 [Compound 2890],IC50,H460 cells,6 nM
same,Max. BW loss %,[6]; 10 mpk,6.3%
same,TGD 500,[7]; 10 mpk,10 days
same,TGD 1000,[7]; 10 mpk,10 days
same,inhibition in vivo at 10 mg/kg,"[7]; Mus musculus, read-out: TGI",58.4%
same,AUC,[8],613 ng·h/mL
same,Cmax,[8],2730 ng/mL
same,Tmax,[8],5 min
same,half-life,[8],5.49 min
CN(C)C(=O)c1cccc(Oc2cc(COP(=O)(N3CC3)N3CC3)ccc2[N+](=O)[O-])c1 [Compound 2889],TGD 500,[4]; 10 mg/kg ip QD × 5/wk × 2 wks,62 days
same,TGI,[4]; 10 mg/kg ip QD × 5/wk × 2 wks,90.1%
same,IC50,H460 cells,3 nM
same,Max. BW loss %,[5]; 10 mg/kg ip QD × 5/wk × 2 wks,1.1%
same,Max. BW loss %,[6]; 10 mpk,0%
same,TGD 500,[7]; 10 mpk,13 days
same,TGD 1000,[7]; 10 mpk,15 days
same,inhibition in vivo at 10 mg/kg,"[7]; Mus musculus, read-out: TGI",75.6%
same,AUC,[8],598 ng·h/mL
same,Cmax,[8],2480 ng/mL
same,Tmax,[8],5 min
same,half-life,[8],10.3 min
